Test results reported in patent publication US8513251B2, “Pyridazinone compounds” (Takeda Pharmaceutical Company Limited, priority 2009, dated 2013).
pIC50: −log10 of the molar value. Like-named read-outs stand apart in the source and are kept apart here.

Assays:
[1] = system: Male ICR mice; experiment: Improvement of MK-801-induced prepulse inhibition (PPI) deficits; assay type: in vivo; details: 82 dB prepulse; i.p. 30 min before testing; MK-801 0.3 mg/kg s.c. (FIG. 3)
Excerpt: Male ICR mice were supplied by CLEA Japan, Inc (Japan). After arrival to the vivarium, animals were allowed a minimum of 1 week for acclimation. They were housed under a 12:12-h light/dark cycle in a temperature- and humidity-controlled laboratory and allowed food and water ad libitum. The care and use of the animals and the experimental protocols used in this research were approved by the Experimental Animal Care and Use Committee of Takeda Pharmaceutical Company, Ltd (Osaka, Japan).
The compounds were suspended in 0.5% methylcellulose in saline or distilled water, and administered by intraperitoneally (i.p.) or orally (p.o.), respectively. Methamphetamine (Dainippon Sumitomo Pharma Co., Ltd.) and MK-801 (Sigma-Aldrich, St Louis, Mo.) were dissolved in saline, and administered subcutaneously (s.c.). […]
PPI is a measure of sensorimotor gating and is one of a few neuropsychological measures in which humans and rodents can be evaluated in a similar fashion (Psychopharmacology (Berl) 2001, vol. 156: 117-154). We evaluated whether compound could reverse PPI deficits induced by MK-801 using male ICR mice. […] Placement of mice inside the cylinders allowed the whole-body startle responses induced by the acoustic stimuli to be measured via the transduction of movement into analog signals by a piezoelectric unit attached to the platform. […]

[2] = target: T1, Human PDE10A enzyme (Homo sapiens, UniProt Q9Y233); experiment: PDE enzyme inhibition, SPA (Scintillation Proximity Assay); assay type: biochemical; details: for pIC50: human PDE10A, [3H]cGMP substrate; for inhibition at 1 µM: compound at 1 μM, read-out: Percent inhibition (1 μM)
T1 construct: Human PDE10A enzyme was generated from Sf9 or COS-7 cells transfected with the full-length gene; His-tag; made in house; host or cells: Sf9 or COS-7 cells
T1 sequence (Q9Y233 267-1055): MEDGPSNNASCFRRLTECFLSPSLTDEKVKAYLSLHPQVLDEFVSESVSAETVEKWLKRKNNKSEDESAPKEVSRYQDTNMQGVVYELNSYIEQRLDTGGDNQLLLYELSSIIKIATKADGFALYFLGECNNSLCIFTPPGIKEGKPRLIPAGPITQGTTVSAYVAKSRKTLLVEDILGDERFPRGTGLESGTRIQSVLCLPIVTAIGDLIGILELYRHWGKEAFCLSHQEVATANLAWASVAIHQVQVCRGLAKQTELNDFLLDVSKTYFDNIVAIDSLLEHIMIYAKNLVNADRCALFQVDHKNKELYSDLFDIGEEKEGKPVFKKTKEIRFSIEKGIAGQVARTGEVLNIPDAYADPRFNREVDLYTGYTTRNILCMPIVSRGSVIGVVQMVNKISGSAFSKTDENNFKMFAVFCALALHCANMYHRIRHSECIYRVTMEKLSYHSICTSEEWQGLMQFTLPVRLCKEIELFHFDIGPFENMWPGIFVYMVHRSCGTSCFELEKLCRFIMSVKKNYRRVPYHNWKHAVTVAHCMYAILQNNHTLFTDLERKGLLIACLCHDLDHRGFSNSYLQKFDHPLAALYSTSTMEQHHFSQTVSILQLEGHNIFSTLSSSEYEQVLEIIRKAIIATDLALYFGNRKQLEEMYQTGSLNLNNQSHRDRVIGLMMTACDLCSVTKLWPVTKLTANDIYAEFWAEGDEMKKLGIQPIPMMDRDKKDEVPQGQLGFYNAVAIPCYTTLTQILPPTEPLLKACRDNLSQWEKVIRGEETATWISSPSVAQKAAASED
Experimental: Human PDE10A enzyme was generated from Sf9 or COS-7 cells transfected with the full-length gene. Cloned enzyme was extracted from homogenized cell pellets. The extracted enzyme from Sf9 cells was partially purified using His-tag affinity column. The enzyme was stored at −70° C. until use. PDE activity was measured using a SPA (Scintillation Proximity Assay) (GE Healthcare). To evaluate the inhibitory activity, 10 μL of serial diluted compounds were incubated with 20 μL of PDE enzyme in assay buffer (50 mM HEPES-NaOH, 8.3 mM MgCl2, 1.7 mM EGTA, 0.1% BSA (pH 7.4)) for 30 min. at room temperature. Final concentration of DMSO in the assay was 1 percent as compounds were tested in duplicate in 96-well half-area plates (Corning). To start the reaction, 10 μL of substrate [3H] cGMP (25 or 50 nM; enclosed in SPA kits from GE Healthcare or purchased from PerkinElmer, respectively) was added for a final assay volume of 40 μL. After 60 min incubation at room temperature, yttrium SPA beads containing Zinc sulphate were added (20 μL at 6 mg/mL) to terminate the PDE reaction. After being settled for 60 min., assay plates were counted in a scintillation counter (PerkinElmer) to allow calculation of inhibition rate and IC50. Inhibition rate was calculated on the basis of 0% control wells with DMSO and 100% control wells without enzyme.

[3] = Table 1, compound at 0.1 μM as noted in cell, read-out: Percent inhibition (at 0.1 μM)

SMILES	MK-801-induced PPI deficits [1]	inhibition at 0.1 µM ([2]; Table 2, compound at 0.1 μM, read-out: Percent inhibition (0.1 μM))	pIC50 ([2]; Table 2)	melting point	inhibition at 1 µM ([2]; Table 1)	pIC50 ([2]; Table 1)	inhibition at 0.1 µM [2, 3]
Cc1nc2n(c(=O)c1CCN1CCC(c3noc4cc(F)ccc34)CC1)CCCC2 [Risperidone]	significantly reversed						
COc1cn(-c2ccc(N3CCC3=O)cc2F)nc(-c2ccnn2-c2ccccc2)c1=O [Example 107, 1-[2-Fluoro-4-(2-oxoazetidin-1-yl)phenyl]-5-methoxy-3-(1-phenyl-1H-pyrazol-5-yl)pyridazin-4(1H)-one]		104%	> 8.00	189 to 194 °C			
O=c1ccn(-c2cccc(F)c2)nc1-c1ccnn1-c1ccccc1 [Example 15, 1-(3-Fluorophenyl)-3-(1-phenyl-1H-pyrazol-5-yl)pyridazin-4(1H)-one]				170 to 171 °C	97%	6.70 to 8.00	
O=c1ccn(-c2ccc(N3CCOCC3)cc2)nc1-c1ccnn1-c1ccccc1 [Example 23, 1-(4-Morpholin-4-ylphenyl)-3-(1-phenyl-1H-pyrazol-5-yl)pyridazin-4(1H)-one]				205 to 206 °C	102%	> 8.00	
O=c1ccn(-c2cccc(S(=O)(=O)c3nc4ccccc4[nH]3)c2)nc1-c1ccnn1-c1ccccc1 [Example 39, 1-[3-(1H-Benzimidazol-2-ylsulfonyl)phenyl]-3-(1-phenyl-1H-pyrazol-5-yl)pyridazin-4(1H)-one]				160 to 161 °C	98%	> 8.00	
O=c1ccn(-c2cccnc2)nc1-c1ccnn1-c1ccccc1 [Example 30, 3-(1-Phenyl-1H-pyrazol-5-yl)-1-pyridin-3-ylpyridazin-4(1H)-one]				176 to 177 °C		6.70 to 8.00	87%
O=c1ccn(-c2cccc(C(F)(F)F)c2)nc1-c1ccnn1-c1ccccc1 [Example 10, 3-(1-Phenyl-1H-pyrazol-5-yl)-1-[3-(trifluoromethyl)phenyl]pyridazin-4(1H)-one]				156 to 157 °C	98%	6.70 to 8.00	
CS(=O)(=O)c1cccc(-n2ccc(=O)c(-c3ccnn3-c3ccccc3)n2)c1 [Example 36, 1-[3-(Methylsulfonyl)phenyl]-3-(1-phenyl-1H-pyrazol-5-yl)pyridazin-4(1H)-one]				199 to 200 °C		> 8.00	90%
